Data as given in patent US20250108048A1, “STING AGONIST COMPOUNDS AND CONJUGATES” (SUTRO BIOPHARMA, INC., priority 2023, published 2025).

Key:
hSTING-R232 = target: T1, hSTING-R232 (Homo sapiens, UniProt Q86WV6, H232R); experiment: THP1-Dual KI-hSTING-R232 reporter assay (IRF pathway, secreted Lucia luciferase); assay type: cell-based; settings: THP1-Dual KI-hSTING-R232 cells, 24 hours; read-out: Reporter assay EC50 (nM) THP-1-R232
T1 construct: host or cells: THP1-Dual KI-hSTING-R232 (from THP1-Dual KO-STING)
T1 sequence (Q86WV6 whole entry H232R): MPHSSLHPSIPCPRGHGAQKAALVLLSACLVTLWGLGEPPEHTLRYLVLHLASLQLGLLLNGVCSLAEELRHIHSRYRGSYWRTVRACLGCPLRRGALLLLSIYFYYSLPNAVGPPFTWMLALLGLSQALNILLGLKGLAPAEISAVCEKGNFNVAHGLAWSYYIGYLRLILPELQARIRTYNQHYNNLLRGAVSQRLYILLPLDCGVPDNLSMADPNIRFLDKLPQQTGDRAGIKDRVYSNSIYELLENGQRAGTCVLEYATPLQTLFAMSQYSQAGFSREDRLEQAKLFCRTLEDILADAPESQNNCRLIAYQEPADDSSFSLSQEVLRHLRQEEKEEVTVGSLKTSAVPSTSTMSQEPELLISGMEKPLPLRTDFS
Experimental: (§1) The activities of the STING agonists to activate human or mouse STING pathways were evaluated in THP-1-Dual™, THP1-Dual™ KI-hSTING-R232, THP1-Dual™ KI-hSTING-H232 Cells and THP1-Dual™ KI-mSTING Cells. THP-1-Dual™ cells contains hSTING-HAQ haplotype and can be used to evaluate the activity of STING agonists by monitoring the activation of NF-κB pathway and the […] (IFN regulatory factor) pathways. THP1-Dual™ KO-STING cells were generated from THP1-Dual™ cells by stable knockout of the endogenous HAQ STING gene. THP1-Dual™ KI-hSTING-R232 cells, THP1-Dual™ KI-hSTING-H232 cells and THP1-Dual™ KI-mSTING cells were generated by transfecting THP1-Dual™ KO-STING cells with hSTING-R232 or hSTING-H232 or mSTING. Stimulating these reporter cells with a STING agonist activates TRF pathway and induces the production of a secreted Lucia luciferase in the cell culture medium, which can be determined using QUANTI-Luc™ reagent.
(§2) THP-1-Dual™, THP1-Dual™ KI-hSTING-R232, THP1-Dual™ KI-hSTING-H232 and THP1-Dual™ KI-mSTING reporter cells were purchased from Invivogen and maintained in manufacture recommended culture medium with required supplemental antibiotics. On the day of assay, the cells were harvested with Accutase and counted by the Vi-CELL Cell Viability Analyzers. Cells were resuspended in HEK blue detection medium and a total of 10000 cells were seeded in each well of a 384-well flat bottom plate. […] After incubation at 37° C. in a CO2 incubator for 24 hours, 20 μl of cell culture medium per well was transferred into a 384-well white (opaque) plate. 50 μl of QUANTI-Luc™ assay solution was then added to each well and the plate was immediately transferred to an ENVISION® plate reader to measure luminescence (Perkin-Elmer). Relative luminescence readings were converted to fold change of signal using untreated cells as controls. Data was fitted with non-linear regression analysis, using log (agonist) vs. response, variable slope, 4-parameter fit equation using GraphPad Prism. Data was expressed as fold change in signal vs. dose of STING agonist in nM with error bars indicating the Standard Deviation (SD) of the quadruplicates. There result was reported in Table 2 as EC50 (the midpoint of the curve, or concentration at which […] of the maximum effect was observed).

hSTING-HAQ haplotype = target: T2, hSTING-HAQ haplotype (Homo sapiens, UniProt Q86WV6, G230A/H232R/R293Q/R71H); experiment: THP-1-Dual reporter assay (endogenous hSTING-HAQ); assay type: cell-based; settings: THP-1-Dual cells (hSTING-HAQ), 24 hours
T2 construct: host or cells: THP-1-Dual
T2 sequence (Q86WV6 whole entry R71H/G230A/H232R/R293Q): as the sequence (Q86WV6 whole entry H232R) above, with R71H, G230A, R293Q counted along it
Experimental: as §1, §2

hSTING WT = hSTING WT (Homo sapiens, UniProt Q86WV6); experiment: Surface plasmon resonance, hSTING WT; assay type: binding; settings: read-out: hSTING WT SPR (Kd)
Chain of hSTING WT (Q86WV6 whole entry H232R): as the sequence (Q86WV6 whole entry H232R) above

hSTING H232 [1] = target: T3, hSTING H232 (Homo sapiens, UniProt Q86WV6); experiment: Surface plasmon resonance, hSTING H232; assay type: binding; settings: read-out: hSTING H232 SPR (Kd)
T3 sequence (Q86WV6 whole entry): as the sequence (Q86WV6 whole entry H232R) above, with R232H counted along it

hSTING AQ = hSTING AQ (Homo sapiens, UniProt Q86WV6, G230A/H232R/R293Q); experiment: Surface plasmon resonance, hSTING AQ; assay type: binding; settings: read-out: hSTING AQ SPR (Kd)
Chain of hSTING AQ (Q86WV6 whole entry G230A/H232R/R293Q): as the sequence (Q86WV6 whole entry H232R) above, with G230A, R293Q counted along it

mSTING = target: T4, mSTING (Mus musculus, UniProt Q3TBT3); experiment: THP1-Dual KI-mSTING reporter assay; assay type: cell-based; set-up: host or cells: THP1-Dual KI-mSTING (from THP1-Dual KO-STING); settings: THP1-Dual KI-mSTING cells, 24 hours; read-out: Reporter assay EC50 (nM) THP-1 mSTING
T4 sequence (Q3TBT3 1-378): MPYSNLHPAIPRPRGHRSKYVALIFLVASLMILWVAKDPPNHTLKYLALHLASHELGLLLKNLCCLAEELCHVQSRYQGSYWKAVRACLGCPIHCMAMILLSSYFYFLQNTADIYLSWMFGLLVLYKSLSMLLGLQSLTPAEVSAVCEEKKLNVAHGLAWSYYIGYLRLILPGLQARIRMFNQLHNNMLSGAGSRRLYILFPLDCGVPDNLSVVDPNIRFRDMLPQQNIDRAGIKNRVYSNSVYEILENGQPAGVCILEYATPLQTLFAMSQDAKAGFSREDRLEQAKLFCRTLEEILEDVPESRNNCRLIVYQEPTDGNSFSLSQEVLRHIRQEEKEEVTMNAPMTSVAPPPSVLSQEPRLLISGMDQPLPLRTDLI
Experimental: as §1
THP-1-Dual™, THP1-Dual™ KI-hSTING-R232, THP1-Dual™ KI-hSTING-H232 and THP1-Dual™ KI-mSTING reporter cells were purchased from Invivogen and maintained in manufacture recommended culture medium with required supplemental antibiotics. On the day of assay, the cells were harvested with Accutase and counted by the Vi-CELL Cell Viability Analyzers. Cells were resuspended in HEK blue detection medium and a total of 10000 cells were seeded in each well of a 384-well flat bottom plate. Serial dilutions of STING agonists free drugs (1:3 serial dilution starting from 5 uM) was added into treatment wells. After incubation at 37° C. in a CO2 incubator for 24 hours, 20 μl of cell culture medium per well was transferred into a 384-well white (opaque) plate. 50 μl of QUANTI-Luc™ assay solution was then added to each well and the plate was immediately transferred to an ENVISION® plate reader to measure luminescence (Perkin-Elmer). Relative luminescence readings were converted to fold change of signal using untreated cells as controls. Data was fitted with non-linear regression analysis, using log (agonist) vs. response, variable slope, 4-parameter fit equation using GraphPad Prism. Data was expressed as fold change in signal vs. dose of STING agonist in nM with error bars indicating the Standard Deviation (SD) of the quadruplicates. There result was reported in Table 2 as EC50 (the midpoint of the curve, or concentration at which […] of the maximum effect was observed).

hSTING H232 [2] = target: T3, hSTING H232; experiment: THP1-Dual KI-hSTING-H232 reporter assay (IRF pathway, secreted Lucia luciferase); assay type: cell-based; set-up: host or cells: THP1-Dual KI-hSTING-H232 (from THP1-Dual KO-STING); settings: THP1-Dual KI-hSTING-H232 cells, 24 hours; read-out: Reporter assay EC50 (nM) THP-1-H232
Experimental: as §1, §2

EC50 (hSTING-R232) | EC50 (hSTING-HAQ haplotype) | Kd (hSTING WT) | Kd (hSTING H232 [1]) | Kd (hSTING AQ) | EC50 (mSTING) | EC50 (hSTING H232 [2]) | SMILES
> 150 nM | > 150 nM | ≥ 20 nM | ≥ 20 nM | ≥ 20 nM | > 150 nM | > 150 nM | CCn1nc(C)cc1C(=O)Nc1nc2cc(C(N)=O)cc(OC)c2n1C/C=C/Cn1c(N2CCn3nc(C)cc3C2=O)nc2cc(C(N)=O)cc(OCCCN3CC4(CNCCO4)C3)c21 [Compound 5, 1-[(E)-4-[5-Carbamoyl-2-(2-methyl-4-oxo-6,7-dihydropyrazolo[1,5-a]pyrazin-5-yl)-7-[3-(5-oxa-2,8-diazaspiro[3.5]nonan-2-yl)propoxy]benzimidazol-1-yl]but-2-enyl]-2-[(2-ethyl-5-methyl-pyrazole-3-carbonyl)amino]-7-methoxy-benzimidazole-5-carboxamide]
> 150 nM | > 150 nM | ≥ 20 nM | ≥ 20 nM | ≥ 20 nM | > 150 nM | > 150 nM | CCn1nc(C)cc1C(=O)Nc1nc2cc(C(N)=O)cc(OC)c2n1C/C=C/Cn1c(NC(=O)Cc2cc(C)nn2C)nc2cc(C(N)=O)cc(OCCCN3CC4(CNCCO4)C3)c21 [Compound 8]
≤ 50 nM | ≤ 50 nM | ≤ 20 nM | ≤ 20 nM | ≤ 20 nM | ≤ 50 nM | ≤ 50 nM | CCc1nc(C)oc1C(=O)Nc1nc2cc(C(N)=O)cc(OCCCN3CC4(C3)CN(C(=O)[C@@H](N)CC(C)C)CCO4)c2n1C/C=C/Cn1c(NC(=O)c2cc(C)nn2CC)nc2cc(C(N)=O)cc(OC)c21 [Compound 17]
50 to 150 nM | > 150 nM | ≤ 20 nM | ≤ 20 nM | ≤ 20 nM | > 150 nM | 50 to 150 nM | CCn1nc(C)cc1C(=O)Nc1nc2cc(C(N)=O)cnc2n1C/C=C/Cn1c(NC(=O)c2cc(C)nn2CC)nc2cc(C(N)=O)cc(OCCCN3CCC(c4nnc5n4CCNC5)CC3)c21 [Compound 21]
> 150 nM | > 150 nM | ≤ 20 nM | ≤ 20 nM | ≤ 20 nM | > 150 nM | > 150 nM | CCn1nc(C)cc1C(=O)Nc1nc2cc(C(N)=O)cnc2n1CCCCn1c(NC(=O)c2cc(C)nn2CC)nc2cc(C(N)=O)cc(OCCCN3CCC(c4nnc5n4CCNC5)CC3)c21 [Compound 22]
> 150 nM | > 150 nM |  |  |  | > 150 nM | > 150 nM | COc1cc(C(N)=O)cc2nc(NC(=O)c3oc(C)nc3C)n(C/C=C/Cn3c(NC(=O)c4oc(C)nc4C)nc4cc(C(N)=O)cc(OCCCN5CCC(c6nnc7n6CCNC7)CC5)c43)c12 [Compound 43, (E)-N-(5-carbamoyl-1-(4-(5-carbamoyl-2-(2,4-dimethyloxazole-5-carboxamido)-7-(3-(4-(5,6,7,8-tetrahydro-[1,2,4]triazolo[4,3-a]pyrazin-3-yl)piperidin-1-yl)propoxy)-1H-benzo[d]imidazol-1-yl)but-2-en-1-yl)-7-methoxy-1H-benzo[d]imidazol-2-yl)-2,4-dimethyloxazole-5-carboxamide]
≤ 50 nM | ≤ 50 nM |  |  |  | ≤ 50 nM | ≤ 50 nM | CCc1nc(C)sc1C(=O)Nc1nc2cc(C(N)=O)cc(OC)c2n1C/C=C/Cn1c(NC(=O)c2sc(C)nc2CC)nc2cc(C(N)=O)cc(OCCCN3CCC(c4nnc5n4CCNC5)CC3)c21 [Compound 44]
> 150 nM | > 150 nM |  |  |  | > 150 nM | > 150 nM | CCn1nc(C)cc1C(=O)Nc1nc2cc(C(N)=O)cc(OC)c2n1C/C=C/Cn1c(NC(=O)c2cn(C)nc2C2CNC2)nc2cc(C(N)=O)cc(OCCCN3CC4(CCCCO4)C3)c21 [Compound 62]
> 150 nM | > 150 nM |  |  |  | > 150 nM | > 150 nM | CCn1nc(C)cc1C(=O)Nc1nc2cc(C(N)=O)cc(OC)c2n1C/C=C/Cn1c(NC(=O)c2cn(C)nc2CN)nc2cc(C(N)=O)cc(OCCCN3CC4(CCCCO4)C3)c21 [Compound 63, (E)-7-(3-(5-oxa-2-azaspiro[3.5]nonan-2-yl)propoxy)-2-(3-(aminomethyl)-1-methyl-1H-pyrazole-4-carboxamido)-1-(4-(5-carbamoyl-2-(1-ethyl-3-methyl-1H-pyrazole-5-carboxamido)-7-methoxy-1H-benzo[d]imidazol-1-yl)but-2-en-1-yl)-1H-benzo[d]imidazole-5-carboxamide]
50 to 150 nM | > 150 nM | ≤ 20 nM | ≤ 20 nM | ≤ 20 nM | > 150 nM | 50 to 150 nM | CCn1nc(C)cc1C(=O)Nc1nc2cc(C(N)=O)ccc2n1C/C=C/Cn1c(NC(=O)c2cc(C)nn2CC)nc2cc(C(N)=O)cc(OCCCN3CC4(C3)CN(C(=O)[C@H](CC(C)C)NC(=O)CCCCCO/N=C(\C)c3ccc(C[C@H](N)C(=O)O)cc3)CCO4)c21 [LP-2-3]
≤ 50 nM | ≤ 50 nM | ≤ 20 nM | ≤ 20 nM | ≤ 20 nM | ≤ 50 nM | ≤ 50 nM | CCn1nc(C)cc1C(=O)Nc1nc2cc(C(N)=O)cc(OC)c2n1C/C=C/Cn1c(NC(=O)c2cc(C)nn2CC)nc2cc(C(N)=O)cc(OCCCN3CC4(C3)CN(C(=O)CCCCCON)CCO4)c21 [LP-6-1]
≤ 50 nM | > 150 nM | ≤ 20 nM | ≤ 20 nM | ≤ 20 nM | ≤ 50 nM | ≤ 50 nM | CCc1nc(C)oc1C(=O)Nc1nc2cc(C(N)=O)cnc2n1C/C=C/Cn1c(NC(=O)c2oc(C)nc2CC)nc2cc(C(N)=O)cc(OCCCO)c21 [Reference Compd B, reference compound]
